Data from patent US20210077585A1, “METHOD OF TREATMENT OF IMMUNE CHECKPOINT INHIBITOR-RELATED IMMUNE ADVERSE EFFECTS” (priority 2019, published 2021).
Entries after “also recorded” stand apart in the source; their conditions may differ. No end group written: not given here.

Assays:
[1] = tested on: murine dextran sodium sulfate (DSS)-induced colitis; test: Dextran sodium sulfate (DSS)-induced colitis in mice; format: in vivo, C57BL6 mice
Procedure: (§1) Inbred C57BL6 mice, 8 to 12 weeks old, were purchased from Charles River Breeding Laboratories (Calco, Italy). Experiments were performed following protocols approved by the institutional animal committee and in accordance with European Economic Community Council Directive as well as institutional animal care and use guidelines.
DSS is a water soluble, negatively charged sulfated polysaccharide with a highly variable molecular weight ranging from 5 to 1400 kDa. Murine colitis results from administration of 40-50 kDa DSS added to drinking water. […] We have added 40-50 kDa DSS to sterilized drinking water at 3% for a period of 6 days to induce acute colitis. Concomitantly, Tα1 at 200 μg/kg was intraperitoneally injected daily, as illustrated in FIG. 1A. Control mice receive vehicle alone. Surviving mice were sacrificed at 10 days after the initiation of colitis.
(§2) In both models, animals were monitored daily for appearance of diarrhea, fecal blood, loss of body weight and survival. At the end of the experiment, surviving mice were sacrificed, the colon was excised, and evaluated for macroscopic damage and local immune parameters
(§3) Freshly isolated colons were fixed in formalin and embedded in paraffin. H&E staining was performed using a standard protocol. For the quantitative histological analysis, five criteria were used to grade each section of the intestine: (i) severity of inflammation, (ii) percent of area affected by inflammation, (iii) degree of hyperplasia, (iv) depth of the lesion, and (v) ulceration.
The levels of cytokines in the colon homogenates were determined by specific ELISA (R&D Systems).
(§4) Student's t-test, one- or two-way ANOVA with Bonferroni post-hoc test were used to determine the statistical significance. Significance was defined as p<0.05. Data are pooled results (mean±SEM) or representative images from three experiments.

B16 melanoma = test: Tumor challenge with B16 melanoma under anti-CTLA-4 mAb; format: in vivo, mice; details: 100 μg anti-CTLA-4 mAb days 0, 6, 10 with Tα1 200 μg/kg i.p.; FIG. 2E
Procedure: B16-F0 (ATCC® CRL-6322™ were cultured in RPMI Medium1640 (Gibco, Life Technologies, USA) containing 10% FBS (Gibco, USA), 100 U/mL penicillin, and 100 μg/mL streptomycin, at 37° C. in a humidified atmosphere of 5% CO2. 2×10^5 B16 tumor cells were subcutaneously injected into the right flanks of the mice. The mice were injected intraperitoneally with 100 μg of anti-CTLA-4 mAb, at 0, 6, and 10 days post-tumor implantation and concomitantly with Tα1 at 200 μg/kg intraperitoneally. Tumor size was measured with a caliper and calculated as described (Wang et al., 2019).

[2] = tested on: murine model of checkpoint inhibitor-mediated colitis (CIC); test: Checkpoint inhibitor-mediated colitis (CIC) model (DSS + anti-CTLA-4 mAb) in mice; format: in vivo, C57BL6 mice
Procedure: as §1
The mice received 3% DSS in their drinking water for 8 days and 100 μg of anti-CTLA-4 mAb (BioXcell, USA) or isotype control antibody intraperitoneally at the beginning of the experiment (day 0) and 4 days after (day +4). Surviving mice were sacrificed at 16 days. Tα1 at 200 μg/kg was intraperitoneally injected every other day, as illustrated in FIG. 2A.
as §2, §3, §4

[3] = steroid and infliximab refractory cases; recent reports; cited from earlier work
[4] = ELISA of colon homogenates, FIG. 1F

Substance | loss of body weight ([1]; 3% DSS 6 days, Tα1 200 μg/kg intraperitoneally daily, FIG. 1B) | production of IL-10 in the colon ([1]; ELISA of colon homogenates, FIG. 1E) | production of pro-inflammatory cytokine IL-1S [1, 4] | production of pro-inflammatory cytokine IL-17A [1, 4] | expression of IDO1 in the colon ([1]; RT-PCR, at sacrifice, FIG. 1E) | survival of mice ([1]; Tα1 200 μg/kg i.p. daily, FIG. 1C) | colon histopathology ([1]; Tα1 200 μg/kg i.p. daily, at sacrifice, FIG. 1D) | growth kinetics of B16 melanoma tumors / antitumoral efficacy afforded by anti-CTLA-4 mAb (B16 melanoma) | loss of body weight ([2]; CIC model (3% DSS 8 days + anti-CTLA-4 mAb), Tα1 200 μg/kg i.p. every other day, FIG. 2B) | survival of mice ([2]; CIC model, Tα1 200 μg/kg i.p. every other day, FIG. 2C) | architecture structure of the colon in surviving mice ([2]; CIC model, compared to untreated animals, FIG. 2D) | mice surviving at 16 days post initiation of colitis ([2]; CIC model, time at which untreated mice have all died, FIG. 2C) | efficacy in refractory CIC [3]
Thymosin alpha 1 (Ac-SDAAVDTSSEITTKDLKEKKEVVEEAEN; UniProt P06454 2-29, looked up) [Tα1, naturally-occurring polypeptide of 28 amino acid; from CRIBI Biotechnology, supplied as purified sterile, lyophilized, acetylated polypeptide] | prevented the loss of body weight | induced | decreased the production | decreased the production | induced the expression of IDO1 | increased survival of mice | ameliorated colon histopathology | does not affect the antitumoral efficacy; also recorded: did not affect the growth kinetics of the tumors | not significantly prevented | significantly increased the survival of mice | recovery of the normal architecture structure of the colon | majority of mice surviving | 
Vedolizumab: therapy reported as more gut specific and efficacious in steroid and infliximab refractory checkpoint inhibitor colitis |  |  |  |  |  |  |  |  |  |  |  |  | efficacious in steroid and infliximab refractory cases
